Values of other authors as cited in US20070196500A1, “Composition for oral administration of tamsulosin hydrochloride and controlled release granule formulation comprising same” (priority 2004, published 2007).
Structures can show the parent of a compound that is named as a salt.

For `CCOc1ccccc1OCCN[C@H](C)Cc1ccc(OC)c(S(N)(=O)=O)c1` [Tamsulosin hydrochloride, tamsulosin hydrochloride], the water-solubility is listed as “low water-solubility”.
